From patent US9918983B2, “Suicidal LSD1 inhibitors targeting SOX2-expressing cancer cells” (THE BOARD OF REGENTS OF THE NEVADA SYSTEM OF HIGHER …, priority 2013, dated 2018) come the findings set out here.

Series [1] addresses T1, LSD1 (Homo sapiens, UniProt O60341).
T1 construct: LSD1 activity determined in a cell-based assay as described herein; endogenous in cells
Briefly: LSD1 activity (LSD1 IC50, Table 7, FIG. 2). The class given is cell-based. The procedure: For a typical deacetylation assay, 1 μg rHDAC1 or 1 μg immunoprecipitated endogenous HDAC1-protein A complexes (from two 10-cm dishes) was incubated with 0.4 μg H4K16ac peptide in the presence or absence of 50 μM CBB1007 or 2 μM MS-275 at 30° C. for 1 h. The percentages of deacetylated products were analyzed by mass spectrometry, and the data were analyzed by GraphPad Prism (version 5) software. The reaction products were analyzed by mass spectrometry to separate the peptide substrate (H4K16ac) and the product (H4K16), as previously described (Wang, J., et al. (2011) Cancer Research 71, 7238-7249). For a typical demethylation assay, 0.4 μg H3K4me2 substrate peptide was incubated individually with 1 μg recombinant LSD1 (rLSD1) or 1 μg immunoprecipitated LSD1-protein A complex in the presence or absence of 50 μM CBB1007 or 2 μM MS-275 at 30° C. for 1 h. The reaction products were analyzed by mass spectrometry to separate the products (H3K4me1 and H3K4) from the substrate (H3K4me2), as previously described (Wang, J., et al. (2011) Cancer Research 71, 7238-7249).
Table 7 below lists specific compounds and LSD1 activity determined in a cell-based assay as described herein (see also FIGS. 2A and 2B).

The target in series [2] is T2, recombinant HDAC1 (GST-HDAC1) (Homo sapiens, UniProt Q13547).
T2 construct: Human LSD1 and HDAC1 full-length cDNAs were obtained from Open Biosystems; GST (N, cleaved yes); made in house; host or cells: Escherichia coli BL21
Briefly: In vitro deacetylation assay, recombinant HDAC1, H4K16ac peptide. The class given is biochemical. To be noted: 50 μM CBB1007 or 2 μM MS-275.
Excerpt: Human LSD1 and HDAC1 full-length cDNAs were obtained from Open Biosystems. […] These cDNAs were fully sequenced and cloned into the pGEX-KG or pET28a vector and expressed as the glutathione S-transferase (GST)- or His-tagged fusion proteins in the Escherichia coli BL21 strain and affinity purified with glutathione or Ni-Sepharose (GE Healthcare, United Kingdom) resin. […] The GST tag and uncut GST-HDAC1/GST-LSD1 proteins were depleted by glutathione-Sepharose. For the reconstitution reaction, recombinant GST-CoREST, His-LSD1, and recombinant HDAC1 (rHDAC1) (GST was removed by the use of PreScission protease) (10 μg) were assembled into the LSD1-CoREST-HDAC1 complex and then pulled down by GSTSepharose resins. Protein A-Sepharose was used as a negative-control resin.

Series [3] relates to histone H3 and H4 methylation and acetylation. As to the kind of experiment: Histone modifications in F9 cells (Western blotting). The class given is cell-based, mouse. The procedure:
To quantify and compare the protein band densities in the Western blots shown in the figures, a titration by serial dilution of the siRNA protein samples for mES cell lysates was used as a reference. The concentration of titration samples was measured by use of a NanoDrop 2000 apparatus, and the protein concentration of all titration samples was adjusted to 1 μg/μL. The protein samples were loaded onto an SDS-polyacrylamide gel at levels ranging from 1 μg to 13 μg at 2-μg intervals and immune blotted with each antibody, including anti-LSD1, anti-HDAC1, and anti-histone H3 antibodies, with three independent loadings. The Western blots were developed with exposure times ranging from 30 s to 1 min. The exposure density of each band was scanned by Adobe Photoshop Elements (version 4.0) software using a CanonScan 8600F scanner (Canon, Calif.) and was subsequently quantified by use of the area density tool of Gel-Pro Analyzer (version 4.0) software (Media Cybernetics, Inc.) and plotted. The regression analysis of each signal was performed by use of the Microsoft Excel program's Analysis Tool Pak regression option. […] The amount of the protein band in the Western blot shown in the figures was quantified by scanning, as described for the reference titration. […] The quantity of protein band densities between two protein samples was externally corrected by use of the reference plots. […] The statistical differences between the experimental and control groups were analyzed by one-way analysis of variance (ANOVA). […]
Referring to FIG. 28D, time course analyses of the effects of 50 μM LSD1 inhibitor CBB1007 on histone modifications in F9 cells are shown, but with a shorter time course than above. The mean density of each band was quantified by the use of Gel-Pro Analyzer (version 4.0) software, and error bars represent SEMs for duplicate samples. […] The statistical differences were analyzed by one-way ANOVA. *, P_0.05; **, P_0.01. […]

In series [4] the target is T3, LSD1-protein A complex (Mus musculus, UniProt Q6ZQ88).
T3 construct: recombinant and endogenous LSD1 complexes isolated from F9 cells; endogenous in cells; host or cells: F9 mouse teratocarcinoma cells, anti-LSD1 immunoprecipitate on protein A-Sepharose
As to the kind of experiment: In vitro demethylation assay, immunoaffinity-purified LSD1-protein A complex from F9 cells. The class given is biochemical.
Excerpt: (§4) The immunocomplexes were captured by protein A-Sepharose. Isolated LSD1-protein A or HDAC1-protein A complexes were verified by Western blotting with LSD1 and HDAC1 antibodies.

Series [5] deals with acetylated H4K16. Briefly: H4K16 acetylation in HeLa cells (Western blotting). The series is classed as cell-based, human. To be noted: VPA 1 μM or MS-275 2 μM 24 h, TSA 40 nM 16 h. The procedure:
Referring to FIG. 31B, the acetylation of H4K16 is sensitive to pan-HDAC inhibitors in HeLa cells. F9 and HeLa cells were treated with the HDAC inhibitor VPA (1 μM) or MS-275 (2 μM) for 24 h or TSA (40 nM) for 16 h. Methylated and acetylated histones H3 and H4 were blotted by specific antibodies, as indicated, and quantified by the use of Gel-Pro Analyzer (version 4.0) software.

The target of series [6] is T4, recombinant LSD1 (GST-LSD1) (Homo sapiens, UniProt O60341).
T4 construct: Human LSD1 and HDAC1 full-length cDNAs were obtained from Open Biosystems; GST (N, cleaved yes); made in house; host or cells: Escherichia coli BL21
Briefly: In vitro demethylation assay, recombinant LSD1, H3K4me2 peptide. The class given is biochemical. To be noted: H3K4me2 peptide, LSD1 and HDAC1 without CoREST. From the text:
H3K4me2 and H4K16ac were purchased from AnaSpec and Shanghai Science Peptide Biological Technology Co., Ltd., respectively. Human LSD1 and HDAC1 full-length cDNAs were obtained from Open Biosystems. Human CoREST cDNA was amplified by reverse transcription-PCR (RT-PCR) using mRNA isolated from HeLa cells. These cDNAs were fully sequenced and cloned into the pGEX-KG or pET28a vector and expressed as the glutathione S-transferase (GST)- or His-tagged fusion proteins in the Escherichia coli BL21 strain and affinity purified with glutathione or Ni-Sepharose (GE Healthcare, United Kingdom) resin. […]
For a typical deacetylation assay, 1 μg rHDAC1 or 1 μg immunoprecipitated endogenous HDAC1-protein A complexes (from two 10-cm dishes) was incubated with 0.4 μg H4K16ac peptide in the presence or absence of 50 μM CBB1007 or 2 μM MS-275 at 30° C. for 1 h. The percentages of deacetylated products were analyzed by mass spectrometry, and the data were analyzed by GraphPad Prism (version 5) software. The reaction products were analyzed by mass spectrometry to separate the peptide substrate (H4K16ac) and the product (H4K16), as previously described (Wang, J., et al. (2011) Cancer Research 71, 7238-7249). […]

Series [7] addresses T5, HDAC1-protein A complex (Mus musculus, UniProt O09106).
T5 construct: 1 μg immunoprecipitated endogenous HDAC1-protein A complexes; endogenous in cells; host or cells: F9 mouse teratocarcinoma cells, anti-HDAC1 immunoprecipitate on protein A-Sepharose
As to the kind of experiment: In vitro deacetylation assay, immunoaffinity-purified HDAC1-protein A complex from F9 cells. The class given is biochemical.
Excerpt: as §4

The target in series [8] is T6, LSD1-CoREST-HDAC1 complex (Homo sapiens, UniProt O60341+Q13547).
T6 construct: Human LSD1 and HDAC1 full-length cDNAs were obtained from Open Biosystems; GST (N, cleaved yes); made in house; host or cells: Escherichia coli BL21
As to the kind of experiment: Reconstituted LSD1-CoREST-HDAC1 complex on oligonucleosomes. The class given is biochemical. To be noted: 50 μM CBB1007 or 2 μM MS-275.
Description: For the reconstitution reaction, recombinant GST-CoREST, His-LSD1, and recombinant HDAC1 (rHDAC1) (GST was removed by the use of PreScission protease) (10 μg) were assembled into the LSD1-CoREST-HDAC1 complex and then pulled down by GSTSepharose resins. Protein A-Sepharose was used as a negative-control resin.
Briefly, cells (1×10^6) were washed twice with ice-cold hypotonic buffer (20 mM potassium-HEPES, pH 7.8, 5 mM potassium acetate, 0.5 mM MgCl2, 0.5 mM DTT), swelled, and disrupted with 25 strokes in a Dounce homogenizer using a tightfitting pestle. Nuclei were pelleted at 4,000 rpm for 5 min and resuspended in buffer A (20 mM HEPES, pH 7.9, 1.5 mM magnesium acetate, 50 mM potassium acetate, 10% glycerol, 0.5 mM DTT, 150 mM NaCl, protease and phosphatase inhibitors). […] The chromatin pellet was resuspended in 0.5 mL buffer B (0.32 M sucrose, 50 mM Tris-HCl, pH 7.5, 4 mM MgCl2, 1 mM CaCl2, 0.1 mM phenylmethylsulfonyl fluoride) and incubated with 30 units of micrococcal nuclease for 10 min at 37° C. The digested samples were centrifuged at 8,000×g for 10 min, and the supernatant, which contained oligonucleosomes, was recovered.
The reaction products (demethylated or deacetylated histones) were analyzed by Western blotting.

Series [9] relates to IGROV1 cells. As to the kind of experiment: Cell cycle analysis by FACS in IGROV1 cells. The class given is cell-based, human. To be noted: 50 nM siRNA. The procedure: (§1) The fluorescence-activated cell sorting (FACS) and 3-(4,5-dimethyl-2-thiazolyl)-2,5-diphenyl-2H-tetrazolium bromide (MTT) assays were conducted as described previously (Lan, R., et al. (2012) Lab. Invest. 92, 1503-1514). To synchronize PA-1 and F9 cells at the G1/S phase transition, cells were treated with 2.5 mM thymidine for 12 h, released into fresh medium for 6 h, and blocked again with 2.5 mM thymidine for an additional 12 h. The cell cycle arrest was analyzed by FACS. For differentiation, F9 and PA-1 cells were seeded in 6-well plates at a density of 1×10^4 cells per well and supplemented with 5 μM RA for 3 days. Cells were then recultured in fresh medium without RA for another 2 days, and the cell cycle was analyzed on a BD FACSCalibur cell sorter using the CellQuest program (Becton, Dickinson, Mountain View, Calif.). The percentages of cells in G1, S, and G2/M phases were determined by the use of ModFit LT software.
(§2) Referring to FIG. 9C, Sox2-expressing A549, IGROV1, T47D and Sox2-negative H1437 cells were transfected with 50 nM luciferase (Luc) or LSD1 specific siRNAs for 60 hours and the cell cycle was analyzed by flow-cytometry (FACS).
(§3) Referring to FIG. 17A, Sox2-expressing A549, IGROV1, and T47D and Sox2-negative H1437 cells were transfected with luciferase and Sox2 specific siRNAs for 48 hours. The cell cycles of these cells after Sox2 ablation were analyzed by flow-cytometry.

In series [10] the test system is T47D cells. As to the kind of experiment: Cell cycle analysis by FACS in T47D cells. The series is classed as cell-based, human. To be noted: 50 nM siRNA. How it is done: as §1, §2, §3
Series [11] deals with H1437 cells. As to the kind of experiment: Cell cycle analysis by FACS in H1437 cells. The class given is cell-based, human. To be noted: 50 nM siRNA. How it is done:
as §1, §2, §3

Series [12] has as its system A549 cells. Briefly: Cell cycle analysis by FACS in A549 cells. The series is classed as cell-based, human. To be noted: 50 nM siRNA. How it is done:
as §1, §2, §3

T2 sequence (Q13547 whole entry): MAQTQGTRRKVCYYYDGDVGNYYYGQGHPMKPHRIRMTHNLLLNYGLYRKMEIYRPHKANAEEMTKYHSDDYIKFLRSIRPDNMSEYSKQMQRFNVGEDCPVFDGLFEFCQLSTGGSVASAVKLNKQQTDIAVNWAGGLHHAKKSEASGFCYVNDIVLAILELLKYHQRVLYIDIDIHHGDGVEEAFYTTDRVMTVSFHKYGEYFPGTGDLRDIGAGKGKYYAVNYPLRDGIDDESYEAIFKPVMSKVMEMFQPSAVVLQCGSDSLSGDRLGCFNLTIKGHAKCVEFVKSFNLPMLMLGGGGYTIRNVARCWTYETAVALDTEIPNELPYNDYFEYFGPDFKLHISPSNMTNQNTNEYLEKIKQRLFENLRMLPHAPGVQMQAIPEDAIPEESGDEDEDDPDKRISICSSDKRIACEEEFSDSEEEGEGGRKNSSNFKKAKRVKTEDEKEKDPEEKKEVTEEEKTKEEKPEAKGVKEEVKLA

In turn, `CN1CCN(CCN[C@@H]2C[C@H]2c2ccc(OCc3ccccc3)cc2)CC1` [Compound 2] displayed an IC50 in [1] of 31.4 µM.
`N[C@@H]1C[C@H]1c1ccc(OCc2ccccc2)cc1` [Compound 3] had an IC50 in series [1] of 39.4 µM.
In the case of `Nc1ccccc1NC(=O)c1ccc(CNC(=O)OCc2cccnc2)cc1` [MS-275], the “deacetylase activity of recombinant HDAC1” value in [2] is recorded as “inhibited”. Moreover, the “H4K16 acetylation of oligonucleosomes from treated cells” value in [3] is on record as “hyperacetylated on H4K16”. In [4], the “demethylation activity of immunoaffinity-purified LSD1 (LSD1-protein A)” value is given as “blocked the demethylation activity”. Further, the “acetylated H4K16 level” value in [5] is “induced the accumulation of acetylated H4K16”. Besides, the “LSD1 activity in the absence of CoREST” value in series [6] is given as “not sensitive”. The “deacetylase activity of immunoaffinity-purified HDAC1 (HDAC1-protein A)” value in series [7] is reported as “sensitive”. Also, in series [8], the “HDAC1 deacetylase activity in the reconstituted complex” value is recorded as “blocking the HDAC1 activity” and the “LSD1 demethylase activity in the reconstituted complex” value is listed as “partially inhibit the LSD1 demethylase activity”.
Turning to `CC(/C=C/C(=O)NO)=C\[C@@H](C)C(=O)c1ccc(N(C)C)cc1` [TSA, trichostatin A], the “acetylated H4K16 level” value in series [5] is on record as “induced the accumulation of acetylated H4K16”.
As for `CCCC(CCC)C(=O)O` [VPA, valproic acid], the “acetylated H4K16 level” value in [5] was “induced the accumulation of acetylated H4K16”.
For “LSD1 siRNA: siRNA, human LSD1: GGAAGAAGAUAGUGAAAAC (SEQ ID NO:1) (listed as RNA, chemistry not given here)”, the “cell cycle population G0/G1” value in series [9] is 78.07%; in series [10], 76.34%; in series [11], 37.28%; in series [12], 74.81%. For the same compound, the “cell cycle population G2/M” value in series [9] stood at 8.56%; in [10] it was 12.17%; in [11], 37.75%; in series [12], 0.65%. Moreover, the “cell cycle population S” value in [9] is listed as 13.37%; in series [10], 11.49%; in series [11] it was 24.97%; in series [12], 24.55%.
“Sox2 siRNA: siRNA, human Sox2: CGCUCAUGAAGAAGGAUAA (SEQ ID NO:2) (listed as RNA, chemistry not given here)”: the “cell cycle population G0/G1” value in series [9] worked out at 74.62%; in series [10], 74.65%; in [11] it was 39.39%; in series [12], 76.40%. Also, the “cell cycle population G2/M” value in series [9] came out at 12.52%; in series [10] it was 10.86%; in series [11] it was 35.51%; in series [12], 0.19%. Moreover, the “cell cycle population S” value in series [9] is listed as 12.87%; in series [10], 14.48%; in series [11], 25.10%; in [12] it was 23.41%.
